From patent US11911358B2, “Dicarboxylic acid esters for inducing an analgesic effect” (NEW FRONTIER LABS, LLC, priority 2020, dated 2024)

Experiments:
EpiDerm tissues [1] = test: EpiDerm croton oil irritant toxicity: proliferation and viability assays, microscopic inspection; format: cell-based, human; settings: 25% DEA, 0.1% croton oil
Description: Cell proliferation and cytotoxicity assays: CellTiter 96 Non-Radioactive Cell Proliferation Assay (MTT), CellTiter 96 AQueous One Solution Cell Proliferation Assay (MTS) and CellTiter-Glo Luminescent Cell Viability (ATP) kits were purchased from Promega (Madison, WI). Protein concentration was measured using Micro BCA protein assay kit (Pierce Biotechnology, Rockford, IL). EpiDerm Bioassays: The EpiDerm™ 3-Dimensional Skin Model was purchased from MatTek Corporation (Ashland, MA). […] Conditioned media were collected, the remaining cells were homogenized on ice in the presence of protease and phosphatase inhibitors, and the lysates were clarified by centrifugation. The media and cell lysates were snap frozen at −70° C. Proteins were resolved by gel electrophoresis and visualized in immunoblots with human-specific antibodies to inducible nitric oxide synthase (iNOS), S-nitrosocysteine, and superoxide dismutase 2 (all from Abcam, Cambridge, MA). […] Croton oil (a chemical irritant) was used as a control. The results are shown as percent difference in marker levels in tissues treated with the test articles and those treated with croton oil alone. (Table 1). […] This pattern of tandem upregulation of examined markers in concert with downregulation of PGE2 was unique for DEA and was not observed with any other test article.

PBMCs = test: Membrane fluidity measurement (pyrenedecanoic acid excimer fluorescence); format: cell-based, human; settings: 0.5% DEA
Description: Isolation of human peripheral blood mononuclear cells: Fresh human peripheral blood mononuclear cells (PBMC) specimens were obtained from healthy volunteers. The blood was collected into BD Vacutainer CPT Cell Preparation Tubes (Beckton Dickinson, Franklin Lakes, NJ) and centrifuged at 1,500×g at room temperature and PBMCs were isolated according to supplier's protocol. Cell counts and viability assessment using trypan blue exclusion were measured using hemocytometer. Membrane fluidity measurements: Membrane fluidity was measured using Membrane Fluidity Kit (PN […], Marker Gene Technologies, Eugene, OR). […] The fluorescence of the excimer (excitation at 355 nm, emission at 460 nm) was corrected for the monomer (excitation at 355 nm, emission at 400 nm). The inventors of the present disclosure have shown that altered membrane protein function with a U-shaped dose response. […] Physiological consequences of DEA membrane fluidizing activity were further investigated in human plasmacytoid dendritic cells, which express multiple PRRs including TLRs, NOD and dectin-1 receptors. Human plasmacytoid dendritic cells were stimulated with the receptor agonists alone or in combination with 0.5% DEA.

EpiDerm tissues [2] = test: EpiDerm bioassay: cytokine, chemokine and growth factor levels by multiplexed immunoassay after croton oil insult; format: cell-based, human; settings: 24 hours; for G-CSF, percentage of the control / GM-CSF, percentage of the control / IL-1ra, percentage of the control / IL-10, percentage of the control / IL-13, percentage of the control / Leptin, percentage of the control / IL-4, percentage of the control / PGE2, percentage of the control: EpiDerm + 0.1% croton oil, percent difference vs croton oil alone; for IL-4, percentage of the control: 25% azelaic acid Na salt, 1% salicylic acid Na salt, 1% green tea extract, 1 μg/mL doxycycline hyclate (doxorubicin), 1% 4-ethoxybenzaldehyde, 0.025% all-trans retinoic acid
Description: Multiplexed immunoassays: […] Izbicka, et al., Cancer Genomics Proteomics (2012) 9(1):27-35]. Multiplexed immunoassays were performed using Luminex 100 IS System (Luminex Corporation, Austin, TX). Analyte concentrations were calculated from the standard curves using Bio-Plex Manager 4.1.1 (Bio-Rad Laboratories, Hercules, CA). EpiDerm Bioassays: The EpiDermTM 3-Dimensional Skin Model was purchased from MatTek Corporation (Ashland, MA). […] Conditioned media were collected, the remaining cells were homogenized on ice in the presence of protease and phosphatase inhibitors, and the lysates were clarified by centrifugation. The media and cell lysates were snap frozen at -70° C. Proteins were resolved by gel electrophoresis and visualized in immunoblots with human-specific antibodies to inducible nitric oxide synthase (iNOS), S-nitrosocysteine, and superoxide dismutase 2 (all from Abcam, Cambridge, MA). […] Croton oil (a chemical irritant) was used as a control. The results are shown as percent difference in marker levels in tissues treated with the test articles and those treated with croton oil alone. (Table 1). […] This pattern of tandem upregulation of examined markers in concert with downregulation of PGE2 was unique for DEA and was not observed with any other test article.

human PBMCs = format: cell-based; settings: 0.5% DEA, confocal microscopy (FIG. 3)
[3] = system: human plasmacytoid dendritic cells; test: ATP release and signaling with PRR agonists in plasmacytoid dendritic cells; format: cell-based; settings: 0.5% DEA, 24 hours
Description: Cell proliferation and cytotoxicity assays: CellTiter 96 Non-Radioactive Cell Proliferation Assay (MTT), CellTiter 96 AQueous One Solution Cell Proliferation Assay (MTS) and CellTiter-Glo Luminescent Cell Viability (ATP) kits were purchased from Promega (Madison, WI). Protein concentration was measured using Micro BCA protein assay kit (Pierce Biotechnology, Rockford, IL).
Pathogen-associated molecular pattern receptor agonist studies: PRR agonist kits; human Toll-like receptor (TLR1-9; n=9 agonists), nucleotide oligomerization domain (NOD) NOD1/NOD2 (n=10 agonists, denoted n1, n2, . . . , n10) and dectin-1 (a single agonist) were purchased from InvivoGen, San Diego, CA Plasmacytoid human dendritic cells (MatTek Corporation, Ashland, MA) were diluted to 1.6×10^5 cells/mL and incubated with the agonists at the concentrations in the middle ranges recommended by the supplier in the absence of DEA or with 0.5% DEA for 24 hours. The levels of measured analytes were normalized to the numbers of viable cells.
The inventors of the present disclosure have shown that altered membrane protein function with a U-shaped dose response. At the concentration of 0.5% DEA increased membrane fluidity by 18% above the cholesterol control level. Physiological consequences of DEA membrane fluidizing activity were further investigated in human plasmacytoid dendritic cells, which express multiple PRRs including TLRs, NOD and dectin-1 receptors. […]
Human plasmacytoid dendritic cells (1.6×10^5/ml) were exposed to 20 different PRR agonists alone at the concentrations within physiological ranges of each agonist or in the presence of 0.5% DEA for 24 hours. The results are expressed as the ratios of secreted ATP from the cells treated with the PRR receptor agonists and DEA (treatment groups) to the levels of ATP secreted by the cells treated with the agonists alone (control groups). […] Extracellular levels were measured, and the results were expressed as the ratios of released ATP from the cells+receptor agonist+DEA to the ATP from the cells+receptor agonist alone.

Balb/c mice = test: Hot plate test, hind limb response latency; format: in vivo; settings: 100% (neat) DEA topical to hind limb 5 minutes before test, 42° C., male mice; vs untreated control, p=0.03
Description: In vivo studies: Animal studies and all procedures were performed in compliance with the Animal Welfare Act Regulations (9 CFR 3) and the NIH guidelines for the care and use of laboratory animals at New Frontier Labs LLC, San Antonio, TX Both male and female Balb/c mice 8-10 weeks old weighing approximately 25 g were purchased from Taconic Farms (Hudson, NY). Animals were acclimatized for at least 72 hours after delivery. Prior to experiments the animals were randomized into treatment and control groups. For the assessment of nociceptive effect of DEA, only male mice were used (n=8 per group). The hot plate test was performed at a constant temperature of 42° C. as described in S. Hunskaar, et al., Eur. J. Pharmacol. 1985; 111(2):221-6, which is incorporated herein by reference. DEA was administered neat (100%) or diluted in ethanol (vehicle) to the hind limb. The treatments were administered 5 minutes prior to the heat test. The time between the heat exposure to the first incidence of animal licking the hind paw was measured with a stopwatch.
Statistical analysis: Statistical analysis was done using Student t statistic; p values <0.05 were considered significant. All samples/data were included in the analysis. Continuously distributed outcomes were summarized with the mean and standard deviation. […]

Compound: CCOC(=O)CCCCCCCC(=O)OCC [DEA, diethyl azelate]
- tissue integrity as evaluated by microscopic inspection (EpiDerm tissues [1]): protected tissue integrity
- croton oil irritant toxicity in proliferation and viability assays (EpiDerm tissues [1]; 24 hours): nullified croton oil irritant toxicity
- increase of membrane fluidity above the cholesterol control level (PBMCs): 18%
- effect on pro-inflammatory markers among 57 examined cytokines, chemokines and growth factors (EpiDerm tissues [2]; 25% DEA, 0.1% croton oil): downregulated most of the pro-inflammatory markers
- G-CSF, percentage of the control (EpiDerm tissues [2]): 561%
- GM-CSF, percentage of the control (EpiDerm tissues [2]): 280%
- IL-1ra, percentage of the control (EpiDerm tissues [2]): 33%
- IL-10, percentage of the control (EpiDerm tissues [2]): 200%
- IL-13, percentage of the control (EpiDerm tissues [2]): 112%
- Leptin, percentage of the control (EpiDerm tissues [2]): 51%
- IL-4, percentage of the control (EpiDerm tissues [2]; 25% DEA): 600%
- foci of enhanced cholera toxin B subunit fluorescence on plasma membranes (human PBMCs): no foci of enhanced fluorescence were detectable
- effect on ATP signaling with NOD receptor ligands n9 and n10 [3]: no apparent effect
- cellular signaling from all examined PRR ([3]; TLR, NOD, dectin-1 agonists): downregulated cellular signaling from all examined PRR
- ratio of released ATP, cells+receptor agonist+DEA to cells+receptor agonist alone ([3]; all PRR agonists except NOD ligands n9 and n10 (FIG. 1)): < 1
- decrease of heat sensitivity (hot plate response latency) (Balb/c mice): 33%

Compound: CC1=C(/C=C/C(C)=C/C=C/C(C)=C/C(=O)O)C(C)(C)CCC1 [Retinoic acid, all-trans retinoic acid]
- G-CSF, percentage of the control (EpiDerm tissues [2]): 360%
- GM-CSF, percentage of the control (EpiDerm tissues [2]): −39%
- IL-1ra, percentage of the control (EpiDerm tissues [2]): 20%
- IL-10, percentage of the control (EpiDerm tissues [2]): 369%
- IL-13, percentage of the control (EpiDerm tissues [2]): −19%
- Leptin, percentage of the control (EpiDerm tissues [2]): 36%
- PGE2, percentage of the control (EpiDerm tissues [2]): 4%
- IL-4, percentage of the control (EpiDerm tissues [2]; 25% DEA): 100%

Compound: COc1cccc2c1C(=O)c1c(O)c3c(c(O)c1C2=O)C[C@@](O)(C(=O)CO)C[C@@H]3O[C@H]1C[C@H](N)[C@H](O)[C@H](C)O1 [Doxorubicin, doxorubicin]
- G-CSF, percentage of the control (EpiDerm tissues [2]): 0%
- GM-CSF, percentage of the control (EpiDerm tissues [2]): −3%
- IL-1ra, percentage of the control (EpiDerm tissues [2]): 15%
- IL-10, percentage of the control (EpiDerm tissues [2]): 214%
- IL-13, percentage of the control (EpiDerm tissues [2]): −38%
- Leptin, percentage of the control (EpiDerm tissues [2]): 116%
- PGE2, percentage of the control (EpiDerm tissues [2]): −2%
- IL-4, percentage of the control (EpiDerm tissues [2]; 25% DEA): 80%

Compound: CCOc1ccc(C=O)cc1 [4-ethoxybenzaldehyde]
- G-CSF, percentage of the control (EpiDerm tissues [2]): 340%
- GM-CSF, percentage of the control (EpiDerm tissues [2]): −26%
- IL-1ra, percentage of the control (EpiDerm tissues [2]): 34%
- IL-10, percentage of the control (EpiDerm tissues [2]): 471%
- IL-13, percentage of the control (EpiDerm tissues [2]): 34%
- Leptin, percentage of the control (EpiDerm tissues [2]): 39%
- PGE2, percentage of the control (EpiDerm tissues [2]): 4%
- IL-4, percentage of the control (EpiDerm tissues [2]; 25% DEA): 80%

Compound: O=C(O)CCCCCCCC(=O)O [Azelaic acid, azelaic acid]
- G-CSF, percentage of the control (EpiDerm tissues [2]): −100%
- GM-CSF, percentage of the control (EpiDerm tissues [2]): −16%
- IL-1ra, percentage of the control (EpiDerm tissues [2]): 18%
- IL-10, percentage of the control (EpiDerm tissues [2]): 152%
- IL-13, percentage of the control (EpiDerm tissues [2]): −4%
- Leptin, percentage of the control (EpiDerm tissues [2]): 41%
- PGE2, percentage of the control (EpiDerm tissues [2]): −1%
- IL-4, percentage of the control (EpiDerm tissues [2]; 25% DEA): 40%

Compound: O=C(O)c1ccccc1O [Salicylic acid, salicylic acid]
- G-CSF, percentage of the control (EpiDerm tissues [2]): 640%
- GM-CSF, percentage of the control (EpiDerm tissues [2]): −7%
- IL-1ra, percentage of the control (EpiDerm tissues [2]): 15%
- IL-10, percentage of the control (EpiDerm tissues [2]): 257%
- IL-13, percentage of the control (EpiDerm tissues [2]): −46%
- Leptin, percentage of the control (EpiDerm tissues [2]): 202%
- PGE2, percentage of the control (EpiDerm tissues [2]): 5%
- IL-4, percentage of the control (EpiDerm tissues [2]; 25% DEA): 40%
